{"source": "patent US20240398709A1", "about": "“DRY POWDER FOAMABLE FORMULATIONS FOR DELIVERY OF MEDICAMENTS THROUGH THE MUCOSA” (priority 2021, published 2024)", "key": {"[1]": {"conditions": "cited from earlier work"}, "[2]": {"tested_on": "epirubicin-induced oral mucositis", "conditions": "patients with epirubicin-induced oral mucositis; cited from earlier work"}, "mucositis": {"tested_on": "mucositis", "assay": "Amifostine oral rinse in a patient subject to chemotherapy (prevention/treatment of mucositis)", "format": "in vivo, human", "conditions": "for safety of administration: 200 mg WR-2721 (10 ml 0.09 M) or 125 mg WR-1065 (10 ml 0.09 M)", "protocol": "In this example, a patient is subject to chemotherapy as part of a treatment plan for head and neck cancer. The patient presents multiple squamous cell carcinoma tumors in the throat and larynx. The patient is administered amifostine for use after each chemotherapy session (e.g., for oral rinse within 15 minutes to two hours after chemotherapy).\nThe amifostine is administered to the patient in the formulation described above (Table 2). […] The patient rinses for approximately one minute and thereafter, expels/discards the rinse. The rinse process can be repeated."}, "[3]": {"conditions": "following intravenous administration; cited from earlier work"}, "[4]": {"conditions": "after amifostine injection; animal study; cited from earlier work"}, "mouth mucosa cells": {"tested_on": "mouth mucosa cells", "assay": "Uptake of drug / WR-1065 into mouth mucosa cells after oral rinse", "format": "in vivo, human", "protocol": "Specifically, 125 mg of amifostine is provided as an oral rinse. The patient rinses for approximately one minute and thereafter, expels/discards the rinse. The rinse process can be repeated."}}}
{"smiles": "NCCCNCCSP(=O)(O)O", "note": "[amifostine, S-2-(3-aminopropylamino) ethyl dihydrogen phosphorothioate]", "values": [{"measurement": "pH of maximal rate of hydrolysis", "setting": "[1]; hydrolysis of amifostine to WR-1065 and inorganic phosphate", "value": 3.0}, {"measurement": "hydrolysis at neutral pH", "setting": "[1]; over four hours at room temperature", "value": "no detectable hydrolysis"}, {"measurement": "stability at gastric pH", "setting": "[1]; pH from 1 to 3", "value": "unstable"}, {"measurement": "difference between patients given amifostine oral rinse and control", "setting": "[2]", "value": "no significant difference"}, {"measurement": "safety of administration", "setting": "mucositis", "value": "can be safely administered"}, {"measurement": "clearance from the plasma", "setting": "[3]", "value": "rapidly cleared"}]}
{"smiles": "NCCCNCCS", "note": "[WR-1065]", "values": [{"measurement": "time of maximum tissue concentrations of WR-1065", "setting": "[4]", "value": "five to fifteen"}, {"measurement": "safety of administration", "setting": "mucositis", "value": "can be safely administered"}, {"measurement": "systemic side-effects", "setting": "mucositis; oral rinse", "value": "no systemic side-effects are observed"}, {"measurement": "tolerability", "setting": "mucositis; oral rinse", "value": "well-tolerated"}, {"measurement": "WR-1065 concentration in washed, isolated, vital mouth mucosa cells", "setting": "mouth mucosa cells", "value": "3.7-19.9 ng/10^5 cells"}]}
